Measured values published in ChEMBL document CHEMBL1145727, “Improvement of biological activity and proteolytic stability of peptides by coupling with a cyclic peptide” (Bioorg Med Chem Lett, 2003).
Values belong to the compound of their own block, whether it stands above or below them. Bridge positions count the residues as written; N and C are the ends. Peptide text beside a SMILES is read from it.

Columns and labels:
[1] = target: Protein farnesyltransferase (Homo sapiens, UniProt P49354+P49356); assay: Inhibition of Farnesyltransferase by Scintillation Proximity Assay; format: protein-complex assay
[2] = target: Protein farnesyltransferase (Bos taurus, UniProt P29702+P49355); assay: In vitro inhibition of farnesylation of v-Ki-Ras by bovine farnesyl transferase; format: protein-complex assay
[3] = target: Integrin alpha-5/beta-1 (Homo sapiens, UniProt P05556+P08648); assay: Inhibition of mouse melanoma B16-F10 cell adhesion to fibronectin; format: functional, cell-based
[4] = target: T1, Integrin alpha-IIb/beta-3 (Homo sapiens) (UniProt P05106+P08514); assay: Inhibition of platelet aggregation at 0.3 mM in platelet-rich plasma (PRP) of citreated rabbit heart blood; format: functional; conditions: Oryctolagus cuniculus, target entry is the homologue from another species
[5] = target: T1, Integrin alpha-IIb/beta-3 (Homo sapiens); assay: Inhibition of platelet aggregation at 0.1 mM in platelet-rich plasma (PRP) of citreated rabbit heart blood; format: functional; conditions: Oryctolagus cuniculus, target entry is the homologue from another species
[6] = target: T1, Integrin alpha-IIb/beta-3 (Homo sapiens); assay: Inhibition of platelet aggregation at 1 mM in platelet-rich plasma (PRP) of citreated rabbit heart blood; format: functional; conditions: Oryctolagus cuniculus, target entry is the homologue from another species

Chain of Integrin alpha-5/beta-1 (P05556 21-798 limits assumed): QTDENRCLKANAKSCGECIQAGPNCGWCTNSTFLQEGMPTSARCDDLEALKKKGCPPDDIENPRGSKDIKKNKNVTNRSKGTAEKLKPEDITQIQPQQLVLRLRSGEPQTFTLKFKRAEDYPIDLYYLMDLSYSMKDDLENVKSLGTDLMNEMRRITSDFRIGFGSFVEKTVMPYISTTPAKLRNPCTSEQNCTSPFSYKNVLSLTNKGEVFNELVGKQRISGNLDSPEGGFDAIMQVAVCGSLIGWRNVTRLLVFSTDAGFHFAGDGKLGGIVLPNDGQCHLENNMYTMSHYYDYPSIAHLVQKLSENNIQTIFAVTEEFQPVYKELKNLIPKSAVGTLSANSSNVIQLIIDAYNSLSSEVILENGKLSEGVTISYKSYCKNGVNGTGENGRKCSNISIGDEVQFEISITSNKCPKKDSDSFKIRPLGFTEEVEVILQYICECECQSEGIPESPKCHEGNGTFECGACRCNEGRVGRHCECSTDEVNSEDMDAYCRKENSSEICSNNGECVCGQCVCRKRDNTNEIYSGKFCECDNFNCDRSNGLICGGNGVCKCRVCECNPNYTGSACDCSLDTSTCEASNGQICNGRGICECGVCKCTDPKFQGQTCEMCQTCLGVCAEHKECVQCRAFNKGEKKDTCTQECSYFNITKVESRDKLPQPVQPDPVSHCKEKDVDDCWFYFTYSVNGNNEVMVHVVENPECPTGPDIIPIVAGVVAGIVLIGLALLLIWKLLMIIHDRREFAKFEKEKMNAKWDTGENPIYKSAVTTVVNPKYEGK
Chain of Integrin alpha-5/beta-1 (P08648 42-894 limits assumed): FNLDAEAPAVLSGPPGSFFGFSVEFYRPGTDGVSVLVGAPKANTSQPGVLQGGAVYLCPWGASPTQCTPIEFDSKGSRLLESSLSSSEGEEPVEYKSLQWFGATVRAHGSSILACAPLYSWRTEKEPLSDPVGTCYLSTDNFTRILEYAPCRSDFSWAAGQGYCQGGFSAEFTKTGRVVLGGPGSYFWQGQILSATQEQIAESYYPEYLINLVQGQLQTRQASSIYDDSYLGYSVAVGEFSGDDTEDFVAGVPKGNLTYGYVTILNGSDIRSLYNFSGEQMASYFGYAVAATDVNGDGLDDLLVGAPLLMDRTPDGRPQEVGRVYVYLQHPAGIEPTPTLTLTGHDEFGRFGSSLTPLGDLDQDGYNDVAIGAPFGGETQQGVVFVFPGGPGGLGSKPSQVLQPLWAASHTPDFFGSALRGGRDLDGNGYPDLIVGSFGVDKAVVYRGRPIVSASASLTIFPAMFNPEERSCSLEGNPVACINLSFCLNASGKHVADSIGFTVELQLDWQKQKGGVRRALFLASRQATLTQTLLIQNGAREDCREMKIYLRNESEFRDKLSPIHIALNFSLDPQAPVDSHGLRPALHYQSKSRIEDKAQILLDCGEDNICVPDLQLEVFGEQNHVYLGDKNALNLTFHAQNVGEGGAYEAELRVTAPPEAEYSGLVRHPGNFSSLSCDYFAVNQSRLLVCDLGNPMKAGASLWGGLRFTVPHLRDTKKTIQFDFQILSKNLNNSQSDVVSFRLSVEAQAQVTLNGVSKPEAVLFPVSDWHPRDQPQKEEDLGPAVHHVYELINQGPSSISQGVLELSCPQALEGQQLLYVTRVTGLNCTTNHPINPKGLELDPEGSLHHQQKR
Chain of Integrin alpha-5/beta-1 (P08648 895-1049 limits assumed): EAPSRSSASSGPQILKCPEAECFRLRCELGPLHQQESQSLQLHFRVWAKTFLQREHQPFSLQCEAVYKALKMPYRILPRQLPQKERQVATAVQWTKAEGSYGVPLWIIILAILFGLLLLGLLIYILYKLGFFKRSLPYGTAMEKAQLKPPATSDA

- IC50 [1]: 0.42 µM
- IC50 [2]: 560 µM
Compound: CSCC[C@H](NC(=O)[C@@H](NC(=O)[C@@H](NC(=O)[C@H](CS)NC(=O)[C@H]1CCCN1C(=O)[C@H](CC(C)C)NC(=O)CNC(=O)[C@H](CCSC)NC(=O)[C@H](CO)N[C@H]1CC(=O)NCC(=O)N[C@H](CC(N)=O)C(=O)N[C@@H](Cc2c[nH]c3ccccc23)C(=O)N[C@H](Cc2c[nH]cn2)C(=O)NCC(=O)N[C@H]([C@@H](C)O)C(=O)N[C@@H](C)C(=O)N2CCC[C@@H]2C(=O)N1)C(C)C)C(C)C)C(=O)O

- IC50 ([3]; b16-f10): 800 µM
Compound: CC(C)[C@H](NC(=O)[C@H](C)NC(=O)[C@H](Cc1ccc(O)cc1)NC(=O)[C@@H](NC(=O)[C@@H]1CC(=O)NCC(=O)N[C@@H](CC(N)=O)C(=O)N[C@@H](Cc2c[nH]c3ccccc23)C(=O)N[C@@H](Cc2cnc[nH]2)C(=O)NCC(=O)N[C@@H]([C@@H](C)O)C(=O)N[C@@H](C)C(=O)N2CCC[C@H]2C(=O)N1)C(C)C)C(=O)N[C@H](C(=O)NCC(=O)N[C@@H](CCCNC(=N)N)C(=O)NCC(=O)N[C@@H](CC(=O)O)C(=O)N[C@@H](CO)C(=O)N1CCC[C@H]1C(=O)N[C@@H](C)C(N)=O)[C@@H](C)O (GNWHGTAPDVYAVTGRGDSPA-NH2; lactam N-9)

- Inhibitory ratio [4]: 78.4%
- Inhibitory ratio [5]: 28.3%
- Inhibitory ratio [6]: 92.1%
Compound: CC(C)[C@H](NC(=O)[C@H]1CC(=O)NCC(=O)N[C@H](CC(N)=O)C(=O)N[C@@H](Cc2c[nH]c3ccccc23)C(=O)N[C@H](Cc2c[nH]cn2)C(=O)NCC(=O)N[C@H]([C@@H](C)O)C(=O)N[C@@H](C)C(=O)N2CCC[C@@H]2C(=O)N1)C(=O)N[C@H](C(=O)NCC(=O)N[C@@H](CCCN=C(N)N)C(=O)NCC(=O)N[C@@H](CC(=O)O)C(=O)N[C@@H](CO)C(=O)N1CCC[C@@H]1C(=O)N[C@@H](C)C(=O)O)[C@@H](C)O

Further lines, the compound ahead of its results:

Compound: H-VYAVTGRGDSPA-NH2
- IC50 [3]: 1000 µM

Compound: CSCC[C@H](NC(=O)[C@@H](NC(=O)[C@@H](NC(=O)[C@H](CS)NC(=O)[C@@H]1CCCN1C(=O)[C@H](CC(C)C)NC(=O)CNC(=O)[C@H](CCSC)NC(=O)[C@@H](N)CO)C(C)C)C(C)C)C(=O)O
- IC50 [1]: 1.2 µM

Compound: H-VTGRGDSPA-OH [listing 1 of 2 here]
- IC50 [3]: 1100 µM

Compound: CC(C)[C@H](NC(=O)[C@@H]1CC(=O)NCC(=O)N[C@@H](CC(N)=O)C(=O)N[C@@H](Cc2c[nH]c3ccccc23)C(=O)N[C@@H](Cc2cnc[nH]2)C(=O)NCC(=O)N[C@@H]([C@@H](C)O)C(=O)N[C@@H](C)C(=O)N2CCC[C@H]2C(=O)N1)C(=O)N[C@H](C(=O)NCC(=O)N[C@@H](CCCNC(=N)N)C(=O)NCC(=O)N[C@@H](CC(=O)O)C(=O)N[C@@H](CO)C(=O)N1CCC[C@H]1C(=O)N[C@@H](C)C(=O)O)[C@@H](C)O
- IC50 [3]: 290 µM

Compound: H-VTGRGDSPA-OH [listing 2 of 2 here]
- Inhibitory ratio [4]: 20.3%
- Inhibitory ratio [6]: 61.2%
